We go through two compounds from ChEMBL document CHEMBL5725232, “Inhibitors of matrix metalloproteinases” (2016).

The target of one assay is T1, Interstitial collagenase (Homo sapiens, UniProt P03956).
T1 sequence (P03956 whole entry): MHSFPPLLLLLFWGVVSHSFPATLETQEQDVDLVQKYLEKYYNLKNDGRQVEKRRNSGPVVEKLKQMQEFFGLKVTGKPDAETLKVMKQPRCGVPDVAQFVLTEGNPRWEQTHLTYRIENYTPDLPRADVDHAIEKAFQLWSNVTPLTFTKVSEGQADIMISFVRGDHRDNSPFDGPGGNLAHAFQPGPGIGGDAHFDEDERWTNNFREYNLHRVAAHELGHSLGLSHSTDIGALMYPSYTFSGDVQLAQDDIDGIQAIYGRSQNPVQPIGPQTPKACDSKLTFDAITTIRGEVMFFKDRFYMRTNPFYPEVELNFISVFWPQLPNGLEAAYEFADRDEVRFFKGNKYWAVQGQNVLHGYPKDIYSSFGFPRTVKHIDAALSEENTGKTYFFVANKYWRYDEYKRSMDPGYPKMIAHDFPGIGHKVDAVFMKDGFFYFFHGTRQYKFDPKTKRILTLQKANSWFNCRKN
The assay is described as follows: (§1) Activity Assay: Stock solution of substrate (Mca-Lys-Pro-Leu-Gly-Leu-Dpa-Ala-Arg-NH2) was prepared in DMSO at a concentration of 6 mM. Assays were performed in an assay buffer (50 mM Tris pH 7.5, 300 mM NaCl, 10 uM ZnSO4, 5 mM CaCl2, 0.005% Brij-35). The final DMSO concentration in all assays was 1.0%. […] The assays were carried out at 37° C. The fluorescence changes, resulting from the substrate cleavage, were detected using excitation at 340 nm and emission wavelength of 405 nm using a Wallac 1420 Microplate Reader. The reaction mixtures were preincubated with the inhibitors for 30 minutes. The reactions were started by the addition of MMP substrate, and the fluorescence intensity changes were measured after 60 minutes. The obtained fluorescence values were normalized and % inhibition values calculated. Dose response curves were determined from 6 concentration points using three fold dilution steps, each concentration point was determined in dupllicate. IC50 values were calculated from the dose response curves.

Assay [1] deals with 72 kDa type IV collagenase (Homo sapiens, UniProt P08253). Described as §1.
72 kDa type IV collagenase, sequence (P08253 whole entry): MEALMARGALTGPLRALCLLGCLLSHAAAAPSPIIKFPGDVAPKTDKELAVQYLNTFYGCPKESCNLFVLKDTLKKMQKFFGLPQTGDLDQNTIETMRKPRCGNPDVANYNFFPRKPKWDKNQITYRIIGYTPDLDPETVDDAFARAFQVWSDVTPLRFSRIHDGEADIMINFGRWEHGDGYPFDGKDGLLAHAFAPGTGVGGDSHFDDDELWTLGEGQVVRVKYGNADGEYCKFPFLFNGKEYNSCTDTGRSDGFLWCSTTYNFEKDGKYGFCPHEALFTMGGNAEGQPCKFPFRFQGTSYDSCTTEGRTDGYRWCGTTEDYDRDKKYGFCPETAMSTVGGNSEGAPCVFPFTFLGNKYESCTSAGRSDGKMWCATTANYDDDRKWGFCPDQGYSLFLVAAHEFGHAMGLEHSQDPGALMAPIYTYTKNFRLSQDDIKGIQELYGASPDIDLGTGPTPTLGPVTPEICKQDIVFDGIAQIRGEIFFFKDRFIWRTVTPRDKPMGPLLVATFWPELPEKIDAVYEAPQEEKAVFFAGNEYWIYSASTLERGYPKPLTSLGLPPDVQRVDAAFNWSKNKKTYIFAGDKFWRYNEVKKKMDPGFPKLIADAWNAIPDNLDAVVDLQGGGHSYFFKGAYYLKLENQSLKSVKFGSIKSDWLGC
Assay [2] deals with Matrix metalloproteinase-9 (Homo sapiens, UniProt P14780). The description is as §1.
Matrix metalloproteinase-9, sequence (P14780 whole entry): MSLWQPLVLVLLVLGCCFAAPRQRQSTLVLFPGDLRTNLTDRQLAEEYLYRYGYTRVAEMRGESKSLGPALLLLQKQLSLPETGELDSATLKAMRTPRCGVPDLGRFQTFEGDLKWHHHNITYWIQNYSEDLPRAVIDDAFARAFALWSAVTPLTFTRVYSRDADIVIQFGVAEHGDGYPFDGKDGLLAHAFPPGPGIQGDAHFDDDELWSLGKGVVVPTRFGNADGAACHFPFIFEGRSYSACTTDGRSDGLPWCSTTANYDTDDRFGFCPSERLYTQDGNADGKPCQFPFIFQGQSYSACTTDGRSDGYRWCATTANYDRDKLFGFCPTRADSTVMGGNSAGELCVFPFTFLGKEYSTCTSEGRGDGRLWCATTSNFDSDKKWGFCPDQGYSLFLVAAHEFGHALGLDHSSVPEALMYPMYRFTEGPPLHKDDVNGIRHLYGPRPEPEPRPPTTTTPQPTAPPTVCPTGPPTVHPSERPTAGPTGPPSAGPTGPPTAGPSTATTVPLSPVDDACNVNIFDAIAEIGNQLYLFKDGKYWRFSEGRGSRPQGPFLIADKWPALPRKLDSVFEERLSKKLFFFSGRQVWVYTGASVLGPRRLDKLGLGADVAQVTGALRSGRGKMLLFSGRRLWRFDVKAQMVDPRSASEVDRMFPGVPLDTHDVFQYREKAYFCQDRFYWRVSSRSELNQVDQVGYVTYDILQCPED
For the next assay, the target named is Collagenase 3 (Homo sapiens, UniProt P45452). The assay is described as §1, with “The fluorescence changes, resulting from the substrate cleavage, were detected using excitation at 340 nm and emission wavelength of 405 nm using a Wallac 1420 Microplate Reader.” left out.

The IC50 is the midpoint of a concentration-inhibition curve.

Turning to `CCOC(=O)c1csc(CN(Cc2ccc(F)cc2)Cc2ccc(OCc3ccccc3)cc2)n1`, the IC50 is 280 µM at Interstitial collagenase, more than 500 µM in assay [1], 140 µM in assay [2] and 27 µM on Collagenase 3.
With `O=C(O)c1csc(CN(Cc2ccc(OCc3ccccc3)cc2)CC(c2ccccc2)c2ccccc2)n1`, the IC50 in assay [1] was 26 µM; in assay [2], 10 µM; at Collagenase 3 it was 1.76 µM.
